# Assay results as given in patent publication US11419852B2, “Beta-lactam compounds or salts thereof for use in long-acting prevention or treatment of a glucose metabolism disorder” (GLYCOLYSIS BIOMED CO., LTD., priority 2019, dated 2022).
# Marks after values point to notes of the source that are not given here.
# What was measured:
# Type in all cases: in vivo
# [1] = tested on: db/db mice; assay: Plasma biochemical parameters (AST, ALT, BUN, Cr, HbA1c); conditions: Ex 3: db/db mice, daily dosing 3 weeks at doses of Table 10; week 9
# Protocol: Inflammatory markers such as serum aspartate aminotransferase (AST), alanine aminotransferase (ALT), blood urea nitrogen (BUN), creatinine (Cr), and hemoglobin Alc (HbAlc) were measured using a BMC-Hitachi 717 chemistry auto analyzer.
# [2] = tested on: db/db mice; assay: Oral glucose tolerance test (OGTT); parameters: OGTT AUC: unit not given here
# Protocol: Four to five weeks old db/db mice (BKS.Cg-Dock7^m+/+Lepr^db/JNarl) and m/m mice (BKS.Cg-Dock7^m+/Dock7^m+) were obtained from National Laboratory Animal Center ([…], Taiwan). […] PMI Nutrition International, Brentwood, Mo.) and water ad libitum. […] Blood was sampled from the tail vein, and FPG levels were measured and recorded as the basic blood glucose levels. […] The total area under the curve (AUC) in OGTT was plotted and calculated by the Area Under Coordinates Program (StatsToDo Server, Department of Obstetrics and Gynecology, Chinese University of Hong Kong).
# [3] = tested on: db/db mice; assay: Histopathological assessment (H&E stain); conditions: Ex 2, metformin-treated vs ertapenem-treated mice
# Source text: For histopathological assessment, all mice were sacrificed by 95% CO2 asphyxiation at the end of the study period. Their brain, liver, kidney, pancreas, and epididymal fat pads were removed, fixed in 10% phosphate-buffered formalin, and embedded in paraffin. Tissues embedded in paraffin were cut into […] sections that were then stained with hematoxylin-eosin (i.e., H&E stain).
# [4] = Body weight of mice recorded weekly
# Protocol: (§1) Four to five weeks old db/db mice (BKS.Cg-Dock7^m+/+Lepr^db/JNarl) and m/m mice (BKS.Cg-Dock7^m+/Dock7^m+) were obtained from National Laboratory Animal Center ([…], Taiwan). […] PMI Nutrition International, Brentwood, Mo.) and water ad libitum. […] The mouse body weight (bw) and the amounts of water and food intake were recorded weekly for the entire study period.
# [5] = Food and water intake of mice; conditions: Ex 3: db/db mice, daily dosing 3 weeks at doses of Table 10
# Protocol: as §1
# [6] = Ex 2 G3 db/db, Met oral 0.3 mg/g bw/day, dosing 6 weeks, week 6
# [7] = Ex 2 G3 db/db, Met oral 0.3 mg/g bw/day, dosing 6 weeks, week 12
# [8] = Ex 3: db/db mice, daily dosing 3 weeks at doses of Table 10, Week 6 (stopped for 3 weeks)
# [9] = Ex 3: db/db mice, daily dosing 3 weeks at doses of Table 10, Week 9 (stopped for 6 weeks)
smiles,measurement,setting,value
"CN(C)C(=N)N=C(N)N [Met, metformin]",ALT,[1],116 ± 12^d U/L
same,AST,[1],194 ± 17^e U/L
same,BUN,[1],37 ± 1^b mg/dL
same,Creatinine,[1],0.517 ± 0.01^e mg/dL
same,HbA1c,[1],6.7 ± 0.2^e %
same,Oral glucose tolerance (OGT) of db/db mice,"[2]; Ex 2, most time points (ertapenem: weeks 6 and 12)",no significant changes
same,Level of OGTT (blood glucose),"[2]; Ex 2 G3 db/db, Met oral 0.3 mg/g bw/day, dosing 6 weeks, Week 6, 0 min",222 ± 30 mg/dL
same,Level of OGTT (blood glucose),"[2]; Ex 2 G3 db/db, Met oral 0.3 mg/g bw/day, dosing 6 weeks, Week 6, 15 min",828 ± 33^bc
same,Level of OGTT (blood glucose),"[2]; Ex 2 G3 db/db, Met oral 0.3 mg/g bw/day, dosing 6 weeks, Week 6, 30 min",832 ± 42^c
same,Level of OGTT (blood glucose),"[2]; Ex 2 G3 db/db, Met oral 0.3 mg/g bw/day, dosing 6 weeks, Week 6, 60 min",710 ± 86^cd
same,Level of OGTT (blood glucose),"[2]; Ex 2 G3 db/db, Met oral 0.3 mg/g bw/day, dosing 6 weeks, Week 6, 120 min",417 ± 42^cd
same,Level of OGTT (blood glucose),"[2]; Ex 2 G3 db/db, Met oral 0.3 mg/g bw/day, dosing 6 weeks, Week 12, 0 min",267 ± 43^cd
same,Level of OGTT (blood glucose),"[2]; Ex 2 G3 db/db, Met oral 0.3 mg/g bw/day, dosing 6 weeks, Week 12, 15 min",821 ± 47 mg/dL
same,Level of OGTT (blood glucose),"[2]; Ex 2 G3 db/db, Met oral 0.3 mg/g bw/day, dosing 6 weeks, Week 12, 30 min",839 ± 40^cd
same,Level of OGTT (blood glucose),"[2]; Ex 2 G3 db/db, Met oral 0.3 mg/g bw/day, dosing 6 weeks, Week 12, 60 min",741 ± 51^c
same,Level of OGTT (blood glucose),"[2]; Ex 2 G3 db/db, Met oral 0.3 mg/g bw/day, dosing 6 weeks, Week 12, 120 min",564 ± 70^c
same,Level of OGTT (blood glucose),"[2]; Ex 2 G3 db/db, Met oral 0.3 mg/g bw/day, dosing 6 weeks, Week 16, 0 min",215 ± 27 mg/dL
same,Level of OGTT (blood glucose),"[2]; Ex 2 G3 db/db, Met oral 0.3 mg/g bw/day, dosing 6 weeks, Week 16, 15 min",611 ± 24 mg/dL
same,Level of OGTT (blood glucose),"[2]; Ex 2 G3 db/db, Met oral 0.3 mg/g bw/day, dosing 6 weeks, Week 16, 30 min",703 ± 15 mg/dL
same,Level of OGTT (blood glucose),"[2]; Ex 2 G3 db/db, Met oral 0.3 mg/g bw/day, dosing 6 weeks, Week 16, 60 min",637 ± 27 mg/dL
same,Level of OGTT (blood glucose),"[2]; Ex 2 G3 db/db, Met oral 0.3 mg/g bw/day, dosing 6 weeks, Week 16, 120 min",444 ± 62^cd
same,Level of OGTT (blood glucose),"[2]; Ex 2 G3 db/db, Met oral 0.3 mg/g bw/day, dosing 6 weeks, Week 18, 0 min",346 ± 58 mg/dL
same,Level of OGTT (blood glucose),"[2]; Ex 2 G3 db/db, Met oral 0.3 mg/g bw/day, dosing 6 weeks, Week 18, 15 min",836 ± 58 mg/dL
same,Level of OGTT (blood glucose),"[2]; Ex 2 G3 db/db, Met oral 0.3 mg/g bw/day, dosing 6 weeks, Week 18, 30 min",885 ± 73 mg/dL
same,Level of OGTT (blood glucose),"[2]; Ex 2 G3 db/db, Met oral 0.3 mg/g bw/day, dosing 6 weeks, Week 18, 60 min",769 ± 55 mg/dL
same,Level of OGTT (blood glucose),"[2]; Ex 2 G3 db/db, Met oral 0.3 mg/g bw/day, dosing 6 weeks, Week 18, 120 min",589 ± 67^bc
same,OGTT AUC,[2]; [6],1288 ± 93^c
same,OGTT AUC,[2]; [7],1391 ± 94^cd
same,OGTT AUC,"[2]; Ex 2 G3 db/db, Met oral 0.3 mg/g bw/day, dosing 6 weeks, week 16",1143 ± 55^c
same,OGTT AUC,"[2]; Ex 2 G3 db/db, Met oral 0.3 mg/g bw/day, dosing 6 weeks, week 18",1456 ± 85^b
same,OGTT AUC,[2]; [8],1603 ± 46^c
same,OGTT AUC,[2]; [9],1707 ± 43^f
same,"Kidney histological changes (tubular degeneration and necrosis, mineralization, hyaline cast)",[3],more apparent
same,Body weight,"[4]; Ex 2 G3 db/db, Met oral 0.3 mg/g bw/day, dosing 6 weeks, Baseline",31.17 ± 0.47^b
same,Body weight,"[4]; Ex 2 G3 db/db, Met oral 0.3 mg/g bw/day, dosing 6 weeks, week 1",30.81 ± 0.48^b
same,Body weight,"[4]; Ex 2 G3 db/db, Met oral 0.3 mg/g bw/day, dosing 6 weeks, week 2",32.61 ± 0.46^bc
same,Body weight,"[4]; Ex 2 G3 db/db, Met oral 0.3 mg/g bw/day, dosing 6 weeks, week 3",35.97 ± 0.57^cd
same,Body weight,"[4]; Ex 2 G3 db/db, Met oral 0.3 mg/g bw/day, dosing 6 weeks, week 4",37.47 ± 0.79^c
same,Body weight,"[4]; Ex 2 G3 db/db, Met oral 0.3 mg/g bw/day, dosing 6 weeks, week 5",40.15 ± 0.93^c
same,Body weight,[4]; [6],41.82 ± 0.98^d
same,Body weight,"[4]; Ex 2 G3 db/db, Met oral 0.3 mg/g bw/day, dosing 6 weeks, week 7",42.38 ± 1.25^d
same,Body weight,"[4]; Ex 2 G3 db/db, Met oral 0.3 mg/g bw/day, dosing 6 weeks, week 8",43.04 ± 1.54^d
same,Body weight,"[4]; Ex 2 G3 db/db, Met oral 0.3 mg/g bw/day, dosing 6 weeks, week 9",43.68 ± 1.58^d
same,Body weight,"[4]; Ex 2 G3 db/db, Met oral 0.3 mg/g bw/day, dosing 6 weeks, week 10",43.40 ± 1.4^b
same,Body weight,"[4]; Ex 2 G3 db/db, Met oral 0.3 mg/g bw/day, dosing 6 weeks, week 11",44.15 ± 1.37^b
same,Body weight,[4]; [7],45.24 ± 1.37^b
same,Body weight,"[4]; Ex 2 G3 db/db, Met oral 0.3 mg/g bw/day, dosing 6 weeks, week 13",44.68 ± 1.6^b
same,Body weight,"[4]; Ex 3: db/db mice, daily dosing 3 weeks at doses of Table 10, Baseline",28.9 ± 1^b
same,Body weight,"[4]; Ex 3: db/db mice, daily dosing 3 weeks at doses of Table 10, Final",37.0 ± 1^c
same,Body weight,"[4]; Ex 3: db/db mice, daily dosing 3 weeks at doses of Table 10, Week 3",35.9 ± 1^d
same,Body weight,[4]; [8],39.5 ± 1^c
same,Body weight,[4]; [9],39.7 ± 1^c
same,Diet intake,[5],6.2 ± 1^c g/mice/day
same,Water intake,[5],12.1 ± 1^d mL/mice/day
